Assay: JMJD2C Assay: The ability of test compounds to inhibit the activity of JMJD2C was determined in 384-well plate format under the following reaction conditions: 0.3 nM JMJD2C, 300 nM H3K9me3-biotin labeled peptide (Anaspec cat #64360), 2 μM alpha-ketoglutaric acid in assay buffer of 50 mM HEPES, pH7.3, 0.005% Brij35, 0.5 mM TCEP, 0.2 mg/ml BSA, 50 μM sodium L-ascorbate, and 2 μM ammonium iron(II) sulfate. Reaction product was determined quantitatively by TR-FRET after the addition of detection reagent Phycolink Streptavidin-allophycocyanin (Prozyme) and Europium-anti-di-methylated histone H3 lysine 9 (H3K9me2) antibody (PerkinElmer) in the presence of 5 mM EDTA in LANCE detection buffer (PerkinElmer) at a final concentration of 50 nM and 1 nM, respectively.The assay reaction was initiated by the following: 2 μl of the mixture of 900 nM H3K9me3-biotin labeled peptide and 6 μM alpha-ketoglutaric acid with 2 μl of 11-point serial diluted inhibitor in 3% DMSO were added to each well of the plate, followed by the addition of 2 μl of 0.9 nM JMJD2C to initiate the reaction. The reaction mixture was incubated at room temperature for 30 min, and terminated by the addition of 6 μl of 5 mM EDTA in LANCE detection buffer containing 100 nM Phycolink Streptavidin-allophycocyanin and 2 nM Europium-anti-H3K9me2 antibody. Plates were read by EnVisionMultilabel Reader in TR-FRET mode (excitation at 320 nm, emission at 615 nm and 665 nm) after 1 hr incubation at rt. A ratio was calculated (665/615) for each well and fitted to determine inhibition constant (IC50).

IC50	SMILES
in the range around 5.5 µM	O=C(O)c1ccncc1NCC1CCCc2c(OCC3CC3)cccc21 (centres undefined)
in the range around 0.55 µM	O=C(O)c1ccncc1NCC1CCOc2cc(F)ccc21 (centres undefined)
in the range around 5.5 µM	O=C(O)c1ccncc1NCC1CCCc2cc(OC(F)(F)F)ccc21 (centres undefined)
in the range around 5.5 µM	O=C(O)c1ccncc1NCC1CCCc2c(Oc3ccccc3)cccc21 (centres undefined)

— ChEMBL document CHEMBL5726170, “Histone demethylase inhibitors” (2019)
